PubChem BioAssay AID330 (DTP/NCI, 2004)
Values joined by “and” are separate entries in the source; they are usually repeats but may differ in a detail not shown here. Identical values can stand only once. Toxic doses and inconclusive results are not listed. How the source made its calls: active means survival T/C of 150% or more; inactive means T/C below 125% in these data.

Tested on: P388 leukemia ip, CD2F1 mice, survival T/C
Test: NCI In Vivo Anticancer Drug Screen. Data for tumor model P388 Leukemia (intraperitoneal) in CD2F1 (CDF1) mice
Conditions: endpoint: median survival time, higher = longer survival
In short: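 Mice carrying the transplanted tumor received test compound or vehicle. Survival was recorded in each group, and the value is the treated-group measurement divided by that of the vehicle-treated control group.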

[1] = dose: 60.0 mg/kg/injection, schedule: Q01DX005 (ip), vehicle: saline with Tween-80
[2] = dose: 120.0 mg/kg/injection, schedule: Q01DX005 (ip), vehicle: saline with Tween-80
[3] = dose: 50.0 mg/kg/injection, schedule: Q01DX005 (ip), vehicle: saline with Tween-80
[4] = dose: 100.0 mg/kg/injection, schedule: Q01DX005 (ip), vehicle: saline with Tween-80
[5] = dose: 200.0 mg/kg/injection, schedule: Q01DX005 (ip), vehicle: saline with Tween-80
[6] = dose: 240.0 mg/kg/injection, schedule: Q01DX005 (ip), vehicle: saline with Tween-80
[7] = dose: 50.0 mg/kg/injection, schedule: Q01DX005 (ip), vehicle: Klucel (hydroxypropylcellulose) (HPC)
[8] = dose: 100.0 mg/kg/injection, schedule: Q01DX005 (ip), vehicle: Klucel (hydroxypropylcellulose) (HPC)
[9] = dose: 200.0 mg/kg/injection, schedule: Q01DX005 (ip), vehicle: Klucel (hydroxypropylcellulose) (HPC)
[10] = dose: 100.0 mg/kg/injection, schedule: Q01DX009 (ip), vehicle: saline
[11] = dose: 200.0 mg/kg/injection, schedule: Q01DX009 (ip), vehicle: saline
[12] = dose: 60.0 mg/kg/injection, schedule: Q01DX005 (ip), vehicle: Klucel + Tween-80
[13] = dose: 120.0 mg/kg/injection, schedule: Q01DX005 (ip), vehicle: Klucel + Tween-80

Measured: T/C

C=CCOCN1c2cc(OC)c([C@@]3(C(=O)OC)C[C@@H]4CN(CCc5c3[nH]c3ccccc53)C[C@](O)(CC)C4)cc2[C@@]23CCN4CC=C[C@@](CC)([C@@H](OC(C)=O)[C@](O)(C(=O)OC)[C@H]12)[C@H]43
inactive: dose: 1.0 mg/kg/injection, schedule: Q01DX001 (ip), vehicle: water 109 % of control | dose: 2.0 mg/kg/injection, schedule: Q01DX001 (ip), vehicle: water 111 % of control | dose: 4.0 mg/kg/injection, schedule: Q01DX001 (ip), vehicle: water 115 % of control
active: dose: 32.0 mg/kg/injection, schedule: Q01DX001 (ip), vehicle: other 158 % of control

Cn1c(Cl)c(/C=N\Nc2ccccc2[N+](=O)[O-])c2ccccc21
inactive: dose: 25.0 mg/kg/injection, schedule: Q01DX001 (ip), vehicle: Klucel (hydroxypropylcellulose) (HPC) 90 % of control | dose: 50.0 mg/kg/injection, schedule: Q01DX001 (ip), vehicle: Klucel (hydroxypropylcellulose) (HPC) 87 % of control and 89 % of control | dose: 100.0 mg/kg/injection, schedule: Q01DX001 (ip), vehicle: Klucel (hydroxypropylcellulose) (HPC) 86 % of control and 90 % of control | dose: 200.0 mg/kg/injection, schedule: Q01DX001 (ip), vehicle: Klucel (hydroxypropylcellulose) (HPC) 87 % of control and 88 % of control

Nc1nccc(CCc2ccccc2)n1
inactive: [1] 101 % of control | [2] 95 % of control

O=[N+]([O-])c1ccc(Sc2c3ccccc3nc3ccccc23)nc1
inactive: dose: 25.0 mg/kg/injection, schedule: Q01DX005 (ip), vehicle: saline with Tween-80 108 % of control | [3] 100 % of control | [4] 106 % of control | [5] 100 % of control

CC(C)C1OCC(CO)([N+](=O)[O-])CO1 (centres undefined)
inactive: [1] 102 % of control | [2] 100 % of control | [6] 93 % of control

CNC(=O)Oc1cccc2c(OC3OC(CO)C(O)C(O)C3O)cccc12 (centres undefined)
inactive: dose: 100.0 mg/kg/injection, schedule: Q04DX003 (ip), vehicle: Klucel (hydroxypropylcellulose) (HPC) 97 % of control | dose: 200.0 mg/kg/injection, schedule: Q04DX003 (ip), vehicle: Klucel (hydroxypropylcellulose) (HPC) 106 % of control | dose: 400.0 mg/kg/injection, schedule: Q04DX003 (ip), vehicle: Klucel (hydroxypropylcellulose) (HPC) 101 % of control

CC(NC(=O)OC(C)(C)C)C(=O)NC(C)C(=O)NC(C)C(=O)Nc1ccc([N+](=O)[O-])cc1 (centres undefined)
inactive: [3] 94 % of control | [4] 92 % of control | [5] 87 % of control

NC(=S)N/N=C/Cn1ccc(=O)[nH]c1=O
inactive: [7] 100 % of control | [8] 98 % of control | [9] 99 % of control

OCC1OC(OC2(CO)OC(CO)C(O)C2O)C(O)C(O)C1O (centres undefined)
inactive: dose: 4.0 mg/kg/injection, schedule: Q01DX005 (ip), vehicle: saline 98 % of control | dose: 8.0 mg/kg/injection, schedule: Q01DX005 (ip), vehicle: saline 96 % of control | dose: 32.0 mg/kg/injection, schedule: Q01DX005 (ip), vehicle: saline 96 % of control | dose: 64.0 mg/kg/injection, schedule: Q01DX005 (ip), vehicle: saline 97 % of control | [10] 97 % of control | dose: 128.0 mg/kg/injection, schedule: Q01DX005 (ip), vehicle: saline 99 % of control | [11] 97 % of control | dose: 256.0 mg/kg/injection, schedule: Q01DX005 (ip), vehicle: saline 98 % of control | dose: 400.0 mg/kg/injection, schedule: Q01DX009 (ip), vehicle: saline 98 % of control | dose: 512.0 mg/kg/injection, schedule: Q01DX005 (ip), vehicle: saline 100 % of control | dose: 1024.0 mg/kg/injection, schedule: Q01DX005 (ip), vehicle: saline 106 % of control | dose: 2048.0 mg/kg/injection, schedule: Q01DX005 (ip), vehicle: saline 108 % of control

CCOC(=O)c1cnc2c(C)ccc(C)c2c1Nc1ccc2c(c1)OCO2
inactive: [12] 92 % of control | [13] 90 % of control | dose: 240.0 mg/kg/injection, schedule: Q01DX005 (ip), vehicle: Klucel + Tween-80 91 % of control

NC(Cc1cccs1)C(=O)O (centres undefined)
inactive: dose: 100.0 mg/kg/injection, schedule: Q01DX009 (ip), vehicle: saline with Tween-80 100 % of control | dose: 100.0 mg/kg/injection, schedule: Q04DX003 (ip), vehicle: saline with Tween-80 109 % of control | dose: 200.0 mg/kg/injection, schedule: Q01DX009 (ip), vehicle: saline with Tween-80 100 % of control | dose: 200.0 mg/kg/injection, schedule: Q04DX003 (ip), vehicle: saline with Tween-80 100 % of control | dose: 400.0 mg/kg/injection, schedule: Q01DX009 (ip), vehicle: saline with Tween-80 100 % of control | dose: 400.0 mg/kg/injection, schedule: Q04DX003 (ip), vehicle: saline with Tween-80 100 % of control

CC(C)(C)NCC(O)COc1nsnc1N1CCOCC1 (centres undefined)
inactive: dose: 50.0 mg/kg/injection, schedule: Q01DX009 (ip), vehicle: water 103 % of control | dose: 100.0 mg/kg/injection, schedule: Q01DX009 (ip), vehicle: water 108 % of control | dose: 200.0 mg/kg/injection, schedule: Q01DX009 (ip), vehicle: water 111 % of control

CS(=O)(=O)NC(=O)NC(=S)c1ccc(Br)cc1
inactive: dose: 100.0 mg/kg/injection, schedule: Q01DX001 (ip), vehicle: saline with Tween-80 103 % of control | dose: 200.0 mg/kg/injection, schedule: Q01DX001 (ip), vehicle: saline with Tween-80 101 % of control | dose: 400.0 mg/kg/injection, schedule: Q01DX001 (ip), vehicle: saline with Tween-80 107 % of control

CCCCCCC(=O)CC(SCCO)c1ccccc1Cl (centres undefined)
inactive: [1] 92 % of control | [2] 107 % of control | [6] 114 % of control

COCC(Cl)/C(N)=N\S(=O)(=O)c1c(C)cc(Cl)cc1Cl (centres undefined)
inactive: [1] 101 % of control | [2] 100 % of control | [6] 96 % of control

COc1ccc(O)c(C(C)=O)c1
inactive: [7] 102 % of control | [8] 100 % of control | [9] 98 % of control

O=C(O)[C@@H]1c2ccccc2-c2ccccc2[C@H]1C(=O)O
inactive: [3] 98 % of control | [4] 95 % of control | [5] 107 % of control

COc1cc2c(c(OC)c1OC)-c1cc3c(cc1C(OC1OC(COC(C)=O)C(OC(C)=O)C(OC(C)=O)C1OC(C)=O)C1COC(=O)C1C2)OCO3 (centres undefined)
inactive: dose: 18.75 mg/kg/injection, schedule: Q01DX005 (ip), vehicle: Klucel (hydroxypropylcellulose) (HPC) 93 % of control | dose: 37.5 mg/kg/injection, schedule: Q01DX005 (ip), vehicle: Klucel (hydroxypropylcellulose) (HPC) 93 % of control | dose: 75.0 mg/kg/injection, schedule: Q01DX005 (ip), vehicle: Klucel (hydroxypropylcellulose) (HPC) 93 % of control | dose: 150.0 mg/kg/injection, schedule: Q01DX005 (ip), vehicle: Klucel (hydroxypropylcellulose) (HPC) 88 % of control

COc1cc(N)c(C)c2c(C)ccnc12
inactive: dose: 30.0 mg/kg/injection, schedule: Q01DX005 (ip), vehicle: Klucel (hydroxypropylcellulose) (HPC) 106 % of control | dose: 60.0 mg/kg/injection, schedule: Q01DX005 (ip), vehicle: Klucel (hydroxypropylcellulose) (HPC) 92 % of control and 97 % of control

CC1=C(CO)C(=O)OC(C(C)C2CCC3C4CC5OC56C(O)CCC(=O)C6(C)C4CCC23C)C1 (centres undefined)
inactive: dose: 11.15 mg/kg/injection, schedule: Q01DX009 (ip), vehicle: saline + alcohol 95 % of control | dose: 22.3 mg/kg/injection, schedule: Q01DX009 (ip), vehicle: saline + alcohol 99 % of control | dose: 44.6 mg/kg/injection, schedule: Q01DX009 (ip), vehicle: saline + alcohol 101 % of control

CCOc1c(N=Nc2ccc(Cl)cc2Cl)c(C)nn1C(=S)SC
inactive: [12] 103 % of control | [13] 107 % of control

CC(=O)OC1C=CC(SC23CC4CC(CC(C4)C2)C3)N(C(C)=O)C1SC12CC3CC(CC(C3)C1)C2 (centres undefined)
inactive: dose: 50.0 mg/kg/injection, schedule: Q01DX009 (ip), vehicle: Klucel (hydroxypropylcellulose) (HPC) 103 % of control | dose: 100.0 mg/kg/injection, schedule: Q01DX009 (ip), vehicle: Klucel (hydroxypropylcellulose) (HPC) 105 % of control | dose: 200.0 mg/kg/injection, schedule: Q01DX009 (ip), vehicle: Klucel (hydroxypropylcellulose) (HPC) 99 % of control

C=CCC(CCC)(C(=O)Nc1ccc2nc(C)cc(N)c2c1)C(=O)Nc1ccc2nc(C)cc(N)c2c1
inactive: [3] 100 % of control | [4] 93 % of control

CCCOCC(=O)OC
inactive: dose: 50.0 mg/kg/injection, schedule: Q01DX009 (ip), vehicle: saline 98 % of control | [10] 99 % of control | [11] 100 % of control
